Counter-ions that a name gives are not always drawn. Like-named read-outs stand apart in the source and are kept apart here. Where a SMILES comes first, the peptide text is derived from it. [ ]: non-standard residue; d: D form.
What was measured:
[1] = tested on: C57 male mice; assay type: in vivo; settings: no irradiation, 30-day;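 as to survival rate: mice aged 8-10 weeks, weighing 20-22 g, with deaths logged and survival rate computed on day 30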;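 as to survival rates compared with amifostine: mice aged 8-10 weeks, weighing 20-22 g, with deaths logged and survival rate computed on day 30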
Protocol: Administration and grouping: Each group was intraperitoneally injected with one corresponding dose of amifostine. • Each group was intraperitoneally injected with one corresponding dose of Example 17 (IP).
The 30-day survival rate of mice in each group was recorded.

[2] = tested on: C57 male mice; settings: for survival rates compared with amifostine: absorbed dose 6.8Gy and 7.2Gy;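 as to survival rate: mice aged 8-10 weeks, weighing 20-22 g, with deaths logged and survival rate computed on day 30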;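 as to survival rates compared with amifostine: mice aged 8-10 weeks, weighing 20-22 g, with deaths logged and survival rate computed on day 30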
Protocol: Laboratory animals: C57 male mice, 8-10 weeks old, 20-22 g, were divided into 4 groups, 5 or 10 or 15 or 20 or 25 mice in each group.
Observation index: The death and weight of the mice were recorded, and the survival rate was calculated on the 30th day.

[3] = tested on: C57 male mice; test: Example G: effect of stereoisomerism on survival rate of mice under 7.5Gy irradiation; assay type: in vivo; settings: 200 mg/kg IP 30 min before irradiation; for deaths: 9 mice per group
Excerpt: Laboratory animals: C57 male mice, 19-21 g, purchased from Beijing HFK Bioscience Co. Ltd., license number SCXK (Beijing), 9 mice in each group.

[4] = tested on: C57BL/6 mice; test: Example A: 30-day survival of mice after whole-body 137Cs γ-ray irradiation; assay type: in vivo; settings: 200 mg/kg intraperitoneally
Protocol: Material: The gamma ray irradiation device is a ^137Cs irradiator, with a dose rate of 0.7Gy/min. C57BL/6 mice, male, weighing 21-22 g, purchased from Beijing HFK Bioscience Co. Ltd., certificate number SCXK (Beijing) 2014-0004, grouped as: no irradiation group, irradiation and blank solvent group, irradiation and administration group, with 5 mice in each group.
The 30-day survival of the mice in each group was observed, the survival rates were calculated, the body weights were followed, and the organs and white blood cells of mice in each group were compared after 30 days.
Results: At the same administration dose of the four compounds (200 mg/kg, one dose at 24 hours before irradiation and one dose at 30 minutes before irradiation), one-time whole body irradiation with 6.8Gy, 7.2Gy and 7.5Gy ^137Cs gamma rays was performed, respectively, compared with the radiation and blank solvent group. The 30-day survival rate of mice was 100% when compound 1 was used in the cases of irradiations of 6.8Gy and 7.2Gy, respectively. The effects of normal control group and compound 1, compound 2, compound 3 and compound 4 on organs and leukocytes in mice 30 days after irradiation with 7.2Gy are shown in FIG. 4. The effects of normal control group and compound 1 on organs and leukocytes in mice 30 days after irradiation with 6.8Gy and 7.5Gy, respectively, are shown in FIGS. 2 and 6.

[5] = 6.8Gy, 200 mpk IP 30 min before irradiation, day 30
[6] = 7.5Gy, 400 mpk IP 90 min before irradiation
[7] = 7.5Gy, 800 mpk IP 90 min before irradiation

| Structure (SMILES) | Survival number/Test number ([2]; 7.2Gy, 200 mpk IP, day 30) | Survival rate ([2]; 7.2Gy, 200 mpk IP, day 30) [%] | survival rates compared with amifostine [2] | Survival number/Test number [3] | deaths [3] | Survival rate [3] | other results |
| --- | --- | --- | --- | --- | --- | --- | --- |
| NC(=O)[C@H](CS)NC(=O)[C@H](N)CS [Example 17, (S)-2-amino-N—((R)-1-amino-3-mercapto-1-oxopropan-2-yl)-3-mercaptopropanamide trifluoroacetate] (H-[dC]-Cys-NH2) | 9/10 | 90 | survival rates comparable to those using amifostine | – | – | – | Survival number/Test number ([1]; 400 mpk IP): 5/5; Survival number/Test number ([1]; 800 mpk IP): 5/5; Survival number/Test number ([1]; 1600 mpk IP): 4/5; Survival number/Test number [2, 5]: 5/5; Survival rate [2, 5]: 100%; Survival number/Test number ([2]; 7.5Gy, 200 mpk IP, day 30): 0/5; Survival rate ([2]; 7.5Gy, 200 mpk IP, day 30): 0%; Survival number/Test number [2, 6]: 0/5; Survival rate [2, 6]: 0%; Survival number/Test number [2, 7]: 0/5; Survival rate [2, 7]: 0% |
| CNC(=O)[C@@H](CS)NC(=O)[C@@H](CS)NC(=O)[C@@H](CS)NC [Example 8, (S)-3-mercapto-N—((S)-3-mercapto-1-(((S)-3-mercapto-1-(methylamino)-1-oxopropan-2-yl)amino)-1-oxopropan-2-yl)-2-(methylamino) propanamide] | 1/5 | 20 | survival rates comparable to those using amifostine | – | – | – | – |
| CNC(=O)C(CS)NC(=O)C(CS)NC (racemic) [Example 19, 3-mercapto-N-(3-mercapto-1-(methylamino)-1-oxopropan-2-yl)-2-(methylamino) propionamide trifluoroacetate] | – | – | – | 2/9 | (7 deaths) | – | – |
| NC(=O)[C@H](CS)NC(=O)[C@@H](N)CS [Example 1, (R)-2-amino-N—((R)-1-amino-3-mercapto-1-oxopropan-2-yl)-3-mercaptopropanamide trifluoroacetate] (H-Cys-Cys-NH2) | 6/10 | 60 | survival rates comparable to those using amifostine | 1/9 | (8 deaths) | approximately 11% | 30-day survival rate ([4]; 6.8Gy 137Cs γ rays whole body): 100%; 30-day survival rate ([4]; 7.2Gy 137Cs γ rays whole body): 100% |
| N[C@H](CS)C(=O)O [D-Cys, D-cysteine, reference compound] | – | – | – | 0/9 | (9 deaths) | – | – |
| N[C@@H](CS)C(=O)O [L-Cys, L-cysteine, reference compound] | – | – | – | 1/9 | (8 deaths) | – | – |
| NC(=O)[C@H](CS)NC(=O)[C@H](CS)NC(=O)[C@@H](N)CS [Example 3, (R)-2-amino-N—((R)-1-(((R)-1-amino-3-mercapto-1-oxopropan-2-yl)amino)-3-mercapto-1-oxopropan-2-yl)-3-mercaptopropanamide trifluoroacetate] (H-Cys-Cys-Cys-NH2) | 10/15 | 66.67 | survival rates comparable to those using amifostine | 2/9 | (7 deaths) | approximately 22% | – |
| NC(=O)[C@@H](CS)NC(=O)[C@@H](N)CS [Example 18, (R)-2-amino-N—((S)-1-amino-3-mercapto-1-oxopropan-2-yl)-3-mercaptopropanamide trifluoroacetate] (H-Cys-[dC]-NH2) | 4/5 | 80 | survival rates comparable to those using amifostine | – | – | – | – |
| CNC(=O)[C@H](CS)NC(=O)[C@H](CS)NC [Example 2, (R)-3-mercapto-N—((R)-3-mercapto-1-(methylamino)-1-oxopropan-2-yl)-2-(methylamino) propionamide trifluoroacetate] | 10/15 | 66.67 | survival rates comparable to those using amifostine | 4/9 | (5 deaths) | approximately 44% | – |
| CNC(=O)C(CS)NC(=O)C(CS)NC(=O)C(CS)NC (racemic) [Example 20, (RS)-3-mercapto-N—((RS)-3-mercapto-1-(((RS)-3-mercapto-1-(methylamino)-1-oxopropan-2-yl)amino)-1-oxopropan-2-yl)-2-(methylamino) propanamide trifluoroacetate] | – | – | – | 1/9 | (8 deaths) | – | – |
